Tested on: ATF4 luciferase reporter in HEK293T cells
Assay: ATF4-Luc assay (in vitro model of VWMD)
Assay type: cell-based, human
Details: Homo sapiens, HEK-293T, 7 h, HEK293T cells carrying the ATF4 luciferase reporter, 1 μg/mL tunicamycin, One Glo luminescence
Method in brief: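 Stable HEK293T line expressing firefly luciferase behind the human ATF4 5′-UTR, treated with 1 μg/mL tunicamycin plus compound for 7 hours. Luminescence read with One Glo; EC50 determined.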

Compound	EC50
O=C(NC12CC(n3cc(-c4ccc(C(F)(F)F)cn4)cn3)(C1)C2)[C@H]1C[C@H](O)c2cc(Cl)ccc2O1 [Compound 546, (2R,4S)-6-chloro-4-hydroxy-N-(3-{4-[5-(trifluoromethyl)pyridin-2-yl]-1H-pyrazol-1-yl}bicyclo[1.1.1]pentan-1-yl)-3,4-dihydro-2H-1-benzopyran-2-carboxamide]	10 to 50 nM
O=C(NC12CC(n3cc(OCCOC(F)(F)F)cn3)(C1)C2)[C@H]1C[C@@H](O)c2cc(Cl)c(F)cc2O1 [Compound 413, (2R,4R)-6-chloro-7-fluoro-4-hydroxy-N-(3-{4-[2-(trifluoromethoxy)ethoxy]-1H-pyrazol-1-yl}bicyclo[1.1.1]pentan-1-yl)-3,4-dihydro-2H-1-benzopyran-2-carboxamide]	< 10 nM
Cn1nc(C23CC(NC(=O)COc4ccc(Cl)c(F)c4)(C2)C3)cc1O[C@H]1C[C@@H](OC(F)(F)F)C1 [Compound 345, 2-(4-chloro-3-fluorophenoxy)-N-[3-(1-methyl-5-{[cis-3-(trifluoromethoxy)cyclobutyl]oxy}-1H-pyrazol-3-yl)bicyclo[1.1.1]pentan-1-yl]acetamide]	50 to 250 nM
O=C(NC12CC(n3cc(N4CC[C@@H](OC(F)(F)F)C4)cn3)(C1)C2)[C@@H]1C[C@@H](O)c2cc(Cl)c(F)cc2O1 [Compound 379, (2S,4R)-6-chloro-7-fluoro-4-hydroxy-N-(3-{4-[(3R)-3-(trifluoromethoxy)pyrrolidin-1-yl]-1H-pyrazol-1-yl}bicyclo[1.1.1]pentan-1-yl)-3,4-dihydro-2H-1-benzopyran-2-carboxamide]	< 10 nM
O=C(NC12CC(n3cc(-c4ccc(C(F)(F)F)cn4)cn3)(C1)C2)[C@H]1C[C@@H](O)c2cc(Cl)c(Cl)cc2O1 [Compound 567, (2R,4R)-6,7-dichloro-4-hydroxy-N-(3-{4-[5-(trifluoromethyl)pyridin-2-yl]-1H-pyrazol-1-yl}bicyclo[1.1.1]pentan-1-yl)-3,4-dihydro-2H-1-benzopyran-2-carboxamide]	< 10 nM
O=C(NC12CC(n3cc(OC[C@H]4C[C@@H](OC(F)(F)F)C4)cn3)(C1)C2)[C@H]1C[C@@H](O)c2cc(Cl)ccc2O1 [Compound 402, (2R,4R)-6-chloro-4-hydroxy-N-[3-(4-{[cis-3-(trifluoromethoxy)cyclobutyl]methoxy}-1H-pyrazol-1-yl)bicyclo[1.1.1]pentan-1-yl]-3,4-dihydro-2H-1-benzopyran-2-carboxamide]	< 10 nM
O=C(NC12CC(c3ccc(OCCOC(F)(F)F)nc3)(C1)C2)[C@H]1C[C@@H](O)c2cc(Cl)ccc2O1 [Compound 450, (2R,4R)-6-chloro-4-hydroxy-N-(3-{6-[2-(trifluoromethoxy)ethoxy]pyridin-3-yl}bicyclo[1.1.1]pentan-1-yl)-3,4-dihydro-2H-1-benzopyran-2-carboxamide]	50 to 250 nM
O=C(CO[C@H]1C[C@@H](OC(F)(F)F)C1)N[C@@H]1C[C@@H]2C[C@H]1C[C@H]2NC(=O)[C@H]1C[C@@H](O)c2cc(C(F)(F)F)c(F)cc2O1 [Compound 645, (2R,4R)-7-fluoro-4-hydroxy-N-[(1S,2R,4S,5R)-5-(2-{[(1s,3S)-3-(trifluoromethoxy)cyclobutyl]oxy}acetamido)bicyclo[2.2.1]heptan-2-yl]-6-(trifluoromethyl)-3,4-dihydro-2H-1-benzopyran-2-carboxamide]	< 10 nM
COc1ncc(OCC(=O)NC23CC(c4ccnc(OCCCOC(F)(F)F)c4)(C2)C3)cn1 [Compound 452, 2-[(2-methoxypyrimidin-5-yl)oxy]-N-(3-{2-[3-(trifluoromethoxy)propoxy]pyridin-4-yl}bicyclo[1.1.1]pentan-1-yl)acetamide]	250 to 500 nM
O=C(NC12CC(n3cc(-c4ccc(OC(F)(F)F)cn4)cn3)(C1)C2)[C@H]1C[C@H](O)c2cc(C(F)(F)F)ccc2O1 [Compound 551, (2R,4S)-4-hydroxy-N-(3-{4-[5-(trifluoromethoxy)pyridin-2-yl]-1H-pyrazol-1-yl}bicyclo[1.1.1]pentan-1-yl)-6-(trifluoromethyl)-3,4-dihydro-2H-1-benzopyran-2-carboxamide]	< 10 nM
O=C(CO[C@H]1C[C@@H](OC(F)(F)F)C1)NC12CC(NC(=O)[C@H]3C[C@H](O)c4cc(Cl)c(F)cc4O3)(C1)C2 [Compound 496, (2R,4S)-6-chloro-7-fluoro-4-hydroxy-N-[3-(2-{[(1s,3S)-3-(trifluoromethoxy)cyclobutyl]oxy}acetamido)bicyclo[1.1.1]pentan-1-yl]-3,4-dihydro-2H-1-benzopyran-2-carboxamide]	< 10 nM
CN(CCOC(F)(F)F)c1cnn(C23CC(NC(=O)[C@H]4C[C@@H](O)c5cc(Cl)ccc5O4)(C2)C3)c1 [Compound 411, (2R,4R)-6-chloro-4-hydroxy-N-[3-(4-{methyl[2-(trifluoromethoxy)ethyl]amino}-1H-pyrazol-1-yl)bicyclo[1.1.1]pentan-1-yl]-3,4-dihydro-2H-1-benzopyran-2-carboxamide]	10 to 50 nM
O=C(NC12CC(c3ccnc(OCCCOC(F)(F)F)c3)(C1)C2)[C@H]1C[C@@H](O)c2cc(Cl)c(F)cc2O1 [Compound 427, (2R,4R)-6-chloro-7-fluoro-4-hydroxy-N-(3-{2-[3-(trifluoromethoxy)propoxy]pyridin-4-yl}bicyclo[1.1.1]pentan-1-yl)-3,4-dihydro-2H-1-benzopyran-2-carboxamide]	< 10 nM
O=C(COc1ccc(Cl)c(F)c1)NC12CC(c3ccc(C(=O)N4CC(COC(F)(F)F)C4)nc3)(C1)C2 [Compound 600, 2-(4-chloro-3-fluorophenoxy)-N-[3-(6-{3-[(trifluoromethoxy)methyl]azetidine-1-carbonyl}pyridin-3-yl)bicyclo[1.1.1]pentan-1-yl]acetamide]	< 10 nM
O=C(NC12CC(n3cc(-c4ccc(OC(F)F)cn4)cn3)(C1)C2)[C@H]1C[C@@H](O)c2cc(Cl)c(F)cc2O1 [Compound 576, (2R,4R)-6-chloro-N-(3-{4-[5-(difluoromethoxy)pyridin-2-yl]-1H-pyrazol-1-yl}bicyclo[1.1.1]pentan-1-yl)-7-fluoro-4-hydroxy-3,4-dihydro-2H-1-benzopyran-2-carboxamide]	< 10 nM
O=C(NC12CC(n3cc([C@@H]4CC[C@@H](OC(F)(F)F)C4)nn3)(C1)C2)[C@H]1C[C@@H](O)c2cc(Cl)ccc2O1 (mixture of isomers) [Compound 538, (2R,4R)-6-chloro-4-hydroxy-N-(3-{4-[(1RS,3RS)-3-(trifluoromethoxy)cyclopentyl]-1H-1,2,3-triazol-1-yl}bicyclo[1.1.1]pentan-1-yl)-3,4-dihydro-2H-1-benzopyran-2-carboxamide]	< 10 nM
O=C(COc1ccc(Cl)c(F)c1)NC12CC(c3ccc(OCCCOC(F)(F)F)nc3)(C1)C2 [Compound 455, 2-(4-chloro-3-fluorophenoxy)-N-(3-{6-[3-(trifluoromethoxy)propoxy]pyridin-3-yl}bicyclo[1.1.1]pentan-1-yl)acetamide]	50 to 250 nM
O=C(NC12CC(n3cnc(C4CC(OC(F)(F)F)C4)c3)(C1)C2)[C@H]1C[C@@H](O)c2cc(C(F)(F)F)ccc2O1 (stereo partly drawn) [Compound 471, (2R,4R)-4-hydroxy-N-(3-{4-[(1s,3S)-3-(trifluoromethoxy)cyclobutyl]-1H-imidazol-1-yl}bicyclo[1.1.1]pentan-1-yl)-6-(trifluoromethyl)-3,4-dihydro-2H-1-benzopyran-2-carboxamide]	< 10 nM
